Data on nine compounds can be found in ChEMBL document CHEMBL1201862, “PubChem BioAssay data set” (2004).

Among the test systems are MDA-N; DMS-273; NCI-H226; KM12; SF-268; COLO 205; OVCAR-4; T47D; Hs-578T; CAKI-1; HCT-116; HL-60; SK-MEL-28; OVCAR-8; MDA-MB-435; ACHN; RXF 393; EKVX; HT-29; A498.
Assay in all cases: NCI tumour cell line growth inhibition, 48 h

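Protocol summary: plate cells (96-well), add compound at 5 concentrations, incubate 48 h, interpolate endpoints linearly. At the GI50, growth is halved.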 The source made the active and inactive calls. Rule as the data show it: active = GI50 up to about 1.1 µM and inactive = higher. A value given as a limit tells only on which side of the number the result lay.

For `COc1cc2c(cc1O)CCN[C@@]21CS[C@H]2c3c(OC(C)=O)c(C)c4c(c3C(COC1=O)N1C2C2c3c(cc(C)c(OC)c3O)CC([C@@H]1O)N2C)OCO4` (some centres undefined), the GI50 with MDA-N was < 0.0001 µM (active); in the assay with DMS-273, < 1e-06 µM (active); in the assay on NCI-H226 it was < 0.0001 µM (active); with KM12, < 0.0001 µM (active); in the assay with SF-268, < 0.0001 µM (active); in the assay with COLO 205 it was < 0.0001 µM (active). For the same compound, the GI50 is < 0.0001 µM (active) in the assay on OVCAR-4; 0.00296 µM (active) in the assay on T47D; < 0.0001 µM (active) in the assay with Hs-578T; < 0.0001 µM (active) in the assay on CAKI-1; 0.0001 µM (active) with HCT-116; < 0.0001 µM (active) in the assay with HL-60. Moreover, the GI50 with SK-MEL-28, in the assay on OVCAR-8, in the assay with MDA-MB-435, with ACHN, in the assay on RXF 393 and in the assay on EKVX was < 0.0001 µM (active) in each case. The GI50 in the assay on HT-29 was 0.00128 µM (active).
As to `Nc1ncnc2c1ncn2C1CC(O)C(CO)O1` (centres undefined), the GI50 in the assay on MDA-N was > 100 µM (inactive); in the assay with DMS-273, > 100 µM (inactive); in the assay on NCI-H226 it was > 100 µM (inactive); in the assay with KM12 it was 62.7 µM (inactive); with SF-268 it was > 100 µM (inactive); in the assay with COLO 205, > 100 µM (inactive). Also, the GI50 with OVCAR-4, in the assay on T47D, in the assay with CAKI-1, in the assay with HCT-116, in the assay with HL-60 and in the assay with SK-MEL-28 was > 100 µM (inactive) in each case. In addition, the GI50 in the assay with OVCAR-8, with MDA-MB-435, with ACHN, with RXF 393, in the assay with EKVX and in the assay with A498 was > 100 µM (inactive) each time. Further, in the assay with HT-29, the GI50 was > 100 µM (inactive).
As for `N#C/C(=C1\N=NC(N)=C(c2ccc(Cl)cc2)C1=O)c1ccc(Cl)cc1`, the GI50 with DMS-273, with NCI-H226, in the assay on KM12, in the assay with SF-268, in the assay with COLO 205 and with OVCAR-4 was > 100 µM (inactive) throughout. Also, the GI50 with CAKI-1, with HCT-116, with HL-60, in the assay on SK-MEL-28, in the assay with OVCAR-8 and in the assay with ACHN was > 100 µM (inactive) throughout. Also, the GI50 with RXF 393, in the assay with EKVX, in the assay with A498 and with HT-29 was > 100 µM (inactive) throughout.
On to `COc1ccc2c(c1)CCC1C3(CCCC21C)OCCO3` (centres undefined), for which the GI50 in the assay with DMS-273 is 17.5 µM (inactive); in the assay with NCI-H226 it was 17.4 µM (inactive); in the assay on KM12, 20.3 µM (inactive); in the assay with SF-268, 6.9 µM (inactive); in the assay with COLO 205 it was 17.9 µM (inactive); in the assay on OVCAR-4, 29.4 µM (inactive). Also, the GI50 with CAKI-1 was 34.6 µM (inactive); in the assay with HCT-116 it was 16.8 µM (inactive); in the assay on HL-60 it was 15.9 µM (inactive); with SK-MEL-28, 20.2 µM (inactive); in the assay on OVCAR-8 it was 17.5 µM (inactive); in the assay on ACHN, 23.3 µM (inactive). The GI50 with RXF 393 was 13.7 µM (inactive); in the assay on EKVX, 16.8 µM (inactive); with A498 it was 29.6 µM (inactive); in the assay on HT-29 it was 17.5 µM (inactive).
With `COc1cc([C@H]2c3[nH]c4ccccc4c3C[C@H]3COC(=O)N32)cc(OC)c1O`, the GI50 in the assay on MDA-N was < 0.01 µM (active); in the assay on DMS-273, 0.0163 µM (active); with NCI-H226 it was 0.422 µM (active); with KM12, 0.0202 µM (active); with SF-268, 0.0221 µM (active); in the assay with COLO 205, 0.166 µM (active). The GI50 is 39.3 µM (inactive) in the assay on OVCAR-4; 42.4 µM (inactive) with T47D; 0.0335 µM (active) in the assay with Hs-578T; 0.0395 µM (active) in the assay on CAKI-1; 0.0344 µM (active) with HCT-116; 0.0176 µM (active) in the assay with HL-60. Further, the GI50 was 1.66 µM (inactive) with SK-MEL-28; 0.131 µM (active) in the assay with OVCAR-8; < 0.01 µM (active) in the assay with MDA-MB-435; 0.163 µM (active) in the assay on ACHN; 0.0405 µM (active) in the assay with RXF 393; 0.8 µM (active) with EKVX. Moreover, the GI50 with A498 was 0.0509 µM (active); with HT-29 it was 0.0228 µM (active).
For `COc1ccc(CN2C(=O)[C@@H]3Cc4c(OC)c(C)c(OC)c(OC)c4[C@H](/C2=C\c2cc(OC)c(OC)c(C)c2OC)N3C(=O)OC(C)C)cc1`, the GI50 is 19.3 µM (inactive) in the assay with DMS-273; 5.57 µM (inactive) in the assay on NCI-H226; > 100 µM (inactive) with KM12; > 100 µM (inactive) in the assay with SF-268; 12.4 µM (inactive) with COLO 205; 50.7 µM (inactive) in the assay with OVCAR-4. For the same compound, the GI50 was 30.3 µM (inactive) in the assay with CAKI-1; 9.66 µM (inactive) with HCT-116; 5.53 µM (inactive) in the assay with HL-60; > 100 µM (inactive) in the assay with SK-MEL-28; > 100 µM (inactive) in the assay with OVCAR-8; > 100 µM (inactive) in the assay on ACHN. Also, the GI50 in the assay on RXF 393 was 80.4 µM (inactive); in the assay on EKVX, 12.2 µM (inactive); in the assay on A498, 27.3 µM (inactive); with HT-29, 92.5 µM (inactive).
On to `C=CCN1COc2c(cc3c4c(cccc24)C(=O)O3)C1`, for which the GI50 in the assay with DMS-273 was 38.6 µM (inactive); with NCI-H226, > 100 µM (inactive); in the assay on KM12 it was 75.3 µM (inactive); with SF-268, 48.6 µM (inactive); in the assay with COLO 205 it was 17.9 µM (inactive); with OVCAR-4, 68.1 µM (inactive). Moreover, the GI50 with CAKI-1 is 27.5 µM (inactive); with HCT-116, 20.1 µM (inactive); in the assay on HL-60, 21.4 µM (inactive); in the assay with SK-MEL-28 it was 24.6 µM (inactive); in the assay on OVCAR-8, > 100 µM (inactive); with ACHN, > 10 µM (inactive). For the same compound, the GI50 in the assay with RXF 393 was > 10 µM (inactive); in the assay on EKVX it was 35.7 µM (inactive); in the assay with A498, 21.5 µM (inactive); in the assay with HT-29, 23.8 µM (inactive).
Regarding `CCOC(=O)CC(C)C1(C=O)CCCCC1=O` (centres undefined), the GI50 with DMS-273 is 21.1 µM (inactive); in the assay with NCI-H226 it was > 100 µM (inactive); in the assay on KM12, > 100 µM (inactive); in the assay with SF-268, > 100 µM (inactive); in the assay with COLO 205, 29.3 µM (inactive); with OVCAR-4, 79.8 µM (inactive). Moreover, the GI50 in the assay on CAKI-1, with HCT-116, in the assay with HL-60, with SK-MEL-28, with OVCAR-8 and in the assay on ACHN was > 100 µM (inactive) throughout. In addition, the GI50 in the assay on RXF 393 was > 100 µM (inactive); with EKVX it was > 100 µM (inactive); with A498, > 100 µM (inactive); with HT-29, > 10 µM (inactive).
With `CC(=O)OCC(OC(C)=O)C(OC(C)=O)C(OC(C)=O)C(=O)CNn1c(-c2ccccc2Cl)nc2ccccc2c1=O` (centres undefined), the GI50 in the assay on DMS-273, in the assay on NCI-H226, in the assay with KM12, in the assay with SF-268, in the assay on COLO 205 and in the assay on OVCAR-4 was > 100 µM (inactive) in each case. Also, the GI50 in the assay on CAKI-1 was > 100 µM (inactive); in the assay on HCT-116, > 100 µM (inactive); in the assay with HL-60, 38.5 µM (inactive); with SK-MEL-28, > 100 µM (inactive); in the assay on OVCAR-8, > 100 µM (inactive); in the assay on ACHN, > 100 µM (inactive). In addition, the GI50 in the assay on RXF 393, with EKVX, with A498 and in the assay with HT-29 was > 100 µM (inactive) in each case.
